Experimental data published in ChEMBL document CHEMBL5647694, “Novel orally bioavailable EZH1/2 dual inhibitors with greater antitumor efficacy than an EZH2 selective inhibitor” (Cancer Sci, 2017).

What was measured:
[1] = biological target: Ribosomal protein S6 kinase alpha-1 (Homo sapiens) (UniProt Q15418); experiment: Inhibition of N-terminal GST-fused human full length RSK1 (1 to 735 residues) expressed in baculovirus expression system using S6K peptide(N-FL) as substrate at 1 uM in presence of ATP by Mobility shift assay
[2] = biological target: Calcium/calmodulin-dependent protein kinase type 1D (Homo sapiens) (UniProt Q8IU85); experiment: Inhibition of N-terminal GST-tagged full length human CAMK1d (1 to 357 residues) expressed in baculovirus-infected Sf21 cells using Synapsin peptide as substrate at 1 uM in presence of ATP by Mobility shift assay
[3] = biological target: Myosin light chain kinase 2, skeletal/cardiac muscle (Homo sapiens) (UniProt Q9H1R3); experiment: Inhibition of N-terminal GST-fused full length human skMLCK (1 to 596 residues) expressed in baculovirus expression system using MLCtide as substrate at 1 uM in presence of ATP by Mobility shift assay
[4] = biological target: Protein kinase C alpha type (Homo sapiens) (UniProt P17252); experiment: Inhibition of N-terminal GST-fused human full length PKC-alpha (1 to 672 residues ) expressed in baculovirus expression system using PKC peptide as substrate at 1 uM in presence of ATP by Mobility shift assay
[5] = biological target: CDK4/Cyclin D3 (Homo sapiens) (UniProt P11802+P30281); experiment: Inhibition of N-terminal GST-tagged full length human CDK4 (1 to 303 residues)/N-terminal GST-tagged human CyclinD3 (1 to 292 residues) expressed in baculovirus-infected Sf21 cells using DYRKtide-F as substrate at 1 uM in presence of ATP by Mobility shift assay
[6] = biological target: Maternal embryonic leucine zipper kinase (Homo sapiens) (UniProt Q14680); experiment: Inhibition of N-terminal GST-fused truncated human MELK (1 to 493 residues) expressed in Escherichia coli expression system using GS peptide as substrate at 1 uM in presence of ATP by Mobility shift assay
[7] = biological target: Cyclin-dependent kinase 1/cyclin B1 (Homo sapiens) (UniProt P06493+P14635); experiment: Inhibition of N-terminal GST-fused full length human CDC2 (1 to 297 residues)/N-terminal GST fused human CyclinB1 (1 to 433 residues) expressed in baculovirus-infected Sf21 cells using Modified Histone H1 as substrate at 1 uM in presence of ATP by Mobility shift assay
[8] = biological target: Glycogen synthase kinase-3 alpha (Homo sapiens) (UniProt P49840); experiment: Inhibition of N-terminal GST-fused full length human GSK3-alpha (1 to 483 residues) expressed in baculovirus expression system using CREBtide-p as substrate at 1 uM in presence of ATP by Mobility shift assay
[9] = biological target: Serine/threonine-protein kinase Nek6 (Homo sapiens) (UniProt Q9HC98); experiment: Inhibition of N-terminal GST-fused full length human NEK6 (1 to 313 residues) expressed in baculovirus expression system using CDK7 peptide as substrate at 1 uM in presence of ATP by Mobility shift assay
[10] = biological target: [Pyruvate dehydrogenase (acetyl-transferring)] kinase isozyme 4, mitochondrial (Homo sapiens) (UniProt Q16654); experiment: Inhibition of N-terminal GST-fused full length human PDHK4 (1 to 411 residues) expressed in Escherichia coli expression system using PDHKtide as substrate at 1 uM in presence of ATP by Mobility shift assay
[11] = biological target: Aurora kinase A/Targeting protein for Xklp2 (Homo sapiens) (UniProt O14965+Q9ULW0); experiment: Inhibition of N-terminal GST-fused full length human AurA (1 to 403 residues)/TPX2 expressed in baculovirus-infected Sf21 cells using Kemptide as substrate at 1 uM in presence of ATP by Mobility shift assay
[12] = biological target: Protein kinase C gamma type (Homo sapiens) (UniProt P05129); experiment: Inhibition of N-terminal GST-fused human full length PKC-gamma(1 to 697 residues ) expressed in baculovirus expression system using PKC peptide as substrate at 1 uM in presence of ATP by Mobility shift assay
[13] = biological target: Serine/threonine-protein kinase Nek2 (Homo sapiens) (UniProt P51955); experiment: Inhibition of N-terminal His-tagged full length human NEK2 (1 to 445 residues) expressed in baculovirus expression system using CDK7 peptide as substrate at 1 uM in presence of ATP by Mobility shift assay
[14] = biological target: Proto-oncogene tyrosine-protein kinase receptor Ret (Homo sapiens) (UniProt P07949); experiment: Inhibition of N-terminal GST-tagged human RET cytoplasmic domain (658 to 1114 residues) expressed in baculovirus-infected Sf21 cells using CSKtide as substrate at 1 uM in presence of ATP by Mobility shift assay
[15] = biological target: Tyrosine-protein kinase CSK (Homo sapiens) (UniProt P41240); experiment: Inhibition of N-terminal GST-fused full length human CSK (1 to 450 residues) expressed in baculovirus-infected Sf21 cells using Srctide as substrate at 1 uM in presence of ATP by Mobility shift assay
[16] = biological target: Protein kinase C eta type (Homo sapiens) (UniProt P24723); experiment: Inhibition of N-terminal GST-fused human full length PKC-eta (1 to 683 residues ) expressed in baculovirus expression system using PKC peptide as substrate at 1 uM in presence of ATP by Mobility shift assay
[17] = biological target: Serine/threonine-protein kinase DCLK2 (Homo sapiens) (UniProt Q8N568); experiment: Inhibition of N-terminal GST-fused truncated human DCAMKL2 (1 to 691 residues) expressed in baculovirus expression system using GS peptide as substrate at 1 uM in presence of ATP by Mobility shift assay
[18] = biological target: Aurora kinase B (Homo sapiens) (UniProt Q96GD4); experiment: Inhibition of human AurB at 1 uM by Mobility shift assay
[19] = biological target: Mitogen-activated protein kinase 8 (Homo sapiens) (UniProt P45983); experiment: Inhibition of N-terminal GST-fused human JNK1 catalytic domain (2 to 364 residues) expressed in Escherichia coli expression system using Modified ERKtide as substrate at 1 uM in presence of ATP by Mobility shift assay
[20] = biological target: Serine/threonine-protein kinase 26 (Homo sapiens) (UniProt Q9P289); experiment: Inhibition of N-terminal GST-fused full length human MST4 (1 to 416 residues) expressed in baculovirus expression system using Moesin-derived peptide as substrate at 1 uM in presence of ATP by Mobility shift assay
[21] = biological target: Mitogen-activated protein kinase kinase kinase kinase 4 (Homo sapiens) (UniProt O95819); experiment: Inhibition of N-terminal GST-fused human HGK catalytic domain (1 to 328 residues) expressed in baculovirus expression system using Moesin-derived peptide as substrate at 1 uM in presence of ATP by Mobility shift assay
[22] = biological target: Serine/threonine-protein kinase Sgk1 (Homo sapiens) (UniProt O00141); experiment: Inhibition of N-terminal GST-tagged truncated human SGK (61 to 431 residues) expressed in baculovirus expression system using SGKtide as substrate at 1 uM in presence of ATP by Mobility shift assay

| SMILES | inhibition [1] | inhibition [2] | inhibition [3] | inhibition [4] | inhibition [5] | inhibition [6] | inhibition [7] | inhibition [8] | inhibition [9] | inhibition [10] | inhibition [11] | inhibition [12] | inhibition [13] | inhibition [14] | inhibition [15] | inhibition [16] | inhibition [17] | inhibition [18] | inhibition [19] | inhibition [20] | also measured |
| --- | --- | --- | --- | --- | --- | --- | --- | --- | --- | --- | --- | --- | --- | --- | --- | --- | --- | --- | --- | --- | --- |
| Cc1cc(C)c(CNC(=O)c2cc(Br)c3c(c2C)O[C@@](C)([C@H]2CC[C@H](N(C)C)CC2)O3)c(=O)[nH]1 | -6.4% | -3.6% | 2.4% | 4.7% | -4.5% | 2.9% | 1.8% | 1.8% | -0.1% | -4.1% | -4.6% | 0% | 1.5% | -2.3% | -0.5% | 10.8% | -2.7% | -3.7% | -3.4% | -0.1% | inhibition [21]: -0.2%; inhibition [22]: -3% |
| Cc1cc(C)c(CNC(=O)c2cc(Cl)c3c(c2C)O[C@@](C)([C@H]2CC[C@H](N(C)C)CC2)O3)c(=O)[nH]1 [VALEMETOSTAT] | -0.2% | -3.5% | -1.6% | 24% | 2.1% | 1.3% | 8.7% | 1.9% | 0.7% | -4.3% | -6.8% | 1% | 1.4% | -5.7% | -5.9% | 19.8% | -5.4% | -1% | -4.9% | 0.8% | inhibition [21]: 0.4%; inhibition [22]: -4.2% |
